Test results: ChEMBL document CHEMBL1201862, “PubChem BioAssay data set” (2004)
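Growth conditions: 96-well plates. Treatment: test compound, 48 hours, 5 concentrations. Analysis: linear interpolation between bracketing concentrations; unreached endpoints set to highest concentration. Here, GI50 denotes the concentration required for 50% inhibition of growth.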 The source made the active and inactive calls. Rule as the data show it: active = GI50 up to about 1.1 µM and inactive = higher.

Columns and labels:
Assay in all cases: NCI tumour cell line growth inhibition, 48 h
[1] = system: NCI-H226
[2] = system: OVCAR-3
[3] = system: HOP-62
[4] = system: M14
[5] = system: K562
[6] = system: KM-20L2
[7] = system: UACC-62
[8] = system: HCT-116
[9] = system: Malme-3M
[10] = system: TK-10
[11] = system: M19-MEL
[12] = system: EKVX
[13] = system: SK-MEL-5
[14] = system: IGROV-1
[15] = system: HCC 2998
[16] = system: HOP-92
[17] = system: SNB-78
[18] = system: RPMI-8226
[19] = system: MDA-MB-231
[20] = system: XF498

Measured: GI50

COc1cccc(/C=N/C23CC4CC(CC(C4)C2)C3)c1
inactive: [1] > 100 µM | [2] > 100 µM | [3] > 100 µM | [4] > 100 µM | [5] > 100 µM | [6] > 100 µM | [7] > 100 µM | [8] > 100 µM | [9] > 100 µM | [10] > 100 µM | [11] > 100 µM | [12] > 100 µM | [13] > 100 µM | [14] > 100 µM | [15] > 100 µM | [16] > 100 µM | [17] > 100 µM | [18] > 100 µM

COC(=O)C1C(=O)C(C(=O)OC)C2CCC1N2C (stereo unspecified)
inactive: [1] 36.2 µM | [2] 18.3 µM | [3] 36.2 µM | [4] 29.8 µM | [5] 31.8 µM | [7] 40.3 µM | [8] 21.5 µM | [9] 20.2 µM | [10] 62.4 µM | [19] 39 µM | [12] > 100 µM | [13] > 100 µM | [14] 22.9 µM | [15] > 100 µM | [16] 16 µM | [18] 35 µM

O=C(NN=C1NCCCN1)c1ccco1
inactive: [1] > 100 µM | [2] > 100 µM | [3] > 100 µM | [4] > 100 µM | [5] > 100 µM | [7] > 100 µM | [8] > 100 µM | [9] > 100 µM | [10] > 100 µM | [19] > 100 µM | [12] > 100 µM | [13] > 100 µM | [14] > 100 µM | [15] > 100 µM | [16] > 100 µM | [18] > 100 µM

CCOc1cn(C2OC(CO)C(O)C2O)c(=O)[nH]c1=O (stereo unspecified)
inactive: [1] > 100 µM | [2] > 100 µM | [3] > 100 µM | [4] > 100 µM | [5] > 100 µM | [6] > 100 µM | [7] > 100 µM | [8] > 100 µM | [9] > 100 µM | [10] > 100 µM | [11] > 100 µM | [12] > 100 µM | [13] > 100 µM | [14] > 100 µM | [15] > 100 µM | [16] > 100 µM | [17] > 100 µM | [18] > 100 µM

CCCCCCCCc1cc2c(O)c(c1)Cc1cc(CCCCCCCC)cc(c1O)Cc1cc(CCCCCCCC)cc(c1O)Cc1cc(CCCCCCCC)cc(c1O)Cc1cc(CCCCCCCC)cc(c1O)Cc1cc(CCCCCCCC)cc(c1O)C2
inactive: [3] > 10 µM | [4] > 10 µM | [5] > 100 µM | [6] > 100 µM | [20] > 100 µM | [7] > 100 µM | [8] > 100 µM | [9] > 100 µM | [10] > 100 µM | [14] > 100 µM | [15] > 100 µM | [16] > 100 µM | [17] > 100 µM

CC1(C)OC[C@@H](C[C@H](O)COCc2ccccc2)O1
inactive: [1] > 100 µM | [2] > 100 µM | [3] > 100 µM | [4] > 100 µM | [5] > 100 µM | [7] > 100 µM | [8] > 100 µM | [9] > 100 µM | [10] > 100 µM | [19] > 100 µM | [12] > 100 µM | [13] > 100 µM | [14] > 100 µM | [15] > 100 µM | [16] > 100 µM | [18] > 100 µM

CCN(CC)CCNC(=O)c1cn2c(ccc3sc4ccccc4c(=O)c32)n1
inactive: [1] 13.3 µM | [2] 12.8 µM | [3] 5.96 µM | [4] 15.1 µM | [5] 6.28 µM | [7] 15.1 µM | [8] 5.97 µM | [9] 11.6 µM | [10] 14.4 µM | [19] 8.95 µM | [12] 14.6 µM | [13] 7.26 µM | [14] 5.38 µM | [15] 10.1 µM | [16] 8.91 µM | [18] 5.62 µM

O=C1CC[C@@H](NC(=O)Cc2ccccc2)C(=O)N1
inactive: [1] > 100 µM | [2] > 100 µM | [3] > 100 µM | [4] > 100 µM | [5] > 100 µM | [6] > 100 µM | [20] > 100 µM | [7] > 100 µM | [8] > 100 µM | [9] > 100 µM | [10] > 100 µM | [11] > 100 µM | [12] > 100 µM | [13] > 100 µM | [14] > 100 µM | [15] > 100 µM | [16] > 100 µM | [18] > 100 µM

COC1=CC(=O)C2C(C1=O)C(c1ccccc1)[C@H]2C (stereo partly specified)
inactive: [2] 87.1 µM | [3] > 100 µM | [4] > 100 µM | [5] 34.4 µM | [20] 22.3 µM | [7] > 100 µM | [9] 26.1 µM | [10] > 100 µM | [12] > 100 µM | [13] 80 µM | [14] > 100 µM | [15] > 100 µM | [16] 25.7 µM | [17] > 10 µM | [18] 35.9 µM
